Article PMC12702354, “Engineered an ultrasmall curcumin oral nanoformulation restores intestinal integrity and gut microbiota dysbiosis” (Materials Today Bio, 2025)

Columns and labels:
Caco-2 cell monolayer = assay: TEER of Caco-2 cell monolayer; format: cell-based, human; details: applied apically 120 min, then removed
Method: First, 5 × 10^4 Caco-2 cells/well, as a gastrointestinal epithelium model were cultured in transwell plates (Thermo Fisher, India) with a pore size of 0.4 μm. Once the TEER values attained 500 Ω cm^2, the cell monolayers were utilized for the subsequent experiments. Initially, mucin (10 mg/mL PBS) was introduced into the apical medium to mimic the occurrence of mucus, whereas PBS without mucin was utilized to represent the condition lacking mucus. Subsequently, IF (20 μL, 100 IU/mL) and 200 μL of CUR formulations (1 mg/mL) were introduced into the upper chambers. While incubating in a water bath at 37 °C, samples were taken from the lower chambers for analysis at various time intervals. A portion of the basolateral medium was taken out and examined using RP-HPLC to quantify the CUR content. The Papp of CUR was determined using the method outlined in a previous study. To analyze intracellular uptake, cells were gathered and underwent multiple freeze-thaw cycles prior to being lysed for 60 min. The concentration of CUR taken up by the cells was assessed using HPLC. Additionally, TEER measurements were recorded to evaluate the effect of CUR formulations on the monolayer's integrity. The baseline TEER readings for the Caco-2 cell layer were recorded. The apical media were then substituted with CUR formulations (200 μL). […] The Papp values for CUR were calculated.

[1] = system: faecal metabolites of gut bacteria; assay: Faecal metabolome analysis (GC-MS) in VAN-induced mice; format: in vivo, C57BL/6 mice; details: faeces, VAN vs treated group, n = 5
Method: The extract of faecal samples (40 mg/ml methanol) was prepared as described in the previous method. The obtained dry extract was derivatized with methoxyamine-HCl and BSTFA (Sigma-Aldrich, USA), followed by incubation for 1 h at 37 °C. Subsequently, the supernatant (10 μl) obtained after centrifugation at 10,000×g for 12 min was injected into an Agilent GC-MS. The injector, transfer line, and ion source were set at 280 °C, 150 °C and 230 °C, respectively. At the beginning, we set the oven temperature to 60 °C, and then increased at 60 °C/min for 2 min, followed by an increase at the rate of 10 °C/min until reaching 300 °C.

## COc1cc(/C=C/C(=O)CC(=O)/C=C/c2ccc(O)c(OC)c2)ccc1O [free-CUR, curcumin]
Caco-2 cell monolayer
  TEER change of cell monolayer: kept the TEER steady
[1]
  Fold change, 2,4,5-Trihydroxypentanoic acid: 0.778
  Fold change, 2-Hydroxyglutaric acid: 3.491
  Fold change, 4-Aminobutyric acid: 0.998
  Fold change, 4-Hydroxy-3-methoxybenzoic acid: 0.619
  Fold change, 4-Hydroxyproline: 0.924
  Fold change, 5-Aminovaleric acid: 1.101
  Fold change, 9,12,15-Octadecatrienoic acid: 1.217
  Fold change, 9-(Z)-Hexadecenoic acid: 1.102
  Fold change, Acetate: 0.733
  Fold change, Adenine: 0.325
  Fold change, Alanine: 0.743
  Fold change, Arabitol: 0.432
  Fold change, Aspartic acid: 3.075
  Fold change, Azelaic acid: 0.849
  Fold change, Benzenepropanoic acid: 0.368
  Fold change, Butyrate: 0.168
  Fold change, Cholesta-8,24-dien-3-ol, 4-methyl-, (3β,4α): 1.313
  Fold change, D-fructose: 1.400
  Fold change, D-glucose: 1.069
  Fold change, Eicosanoic acid: 0.404
  Fold change, Erythronic acid: 1.754
  Fold change, Ethanolamine: 1.266
  Fold change, Fucose: 0.580
  Fold change, Galacturonic acid: 1.024
  Fold change, Gentiobiose: 2.357
  Fold change, Gluconic acid: 1.119
  Fold change, Glutaric acid: 0.708
  Fold change, Glycerol: 0.926
  Fold change, Glycerol-3-phosphate: 2.032
  Fold change, Glycolic acid: 2.144
  Fold change, Hexadecanoic acid: 1.155
  Fold change, Hexanoic acid: 1.359
  Fold change, Homoserine: 2.352
  Fold change, Hypoxanthine: 0.916
  Fold change, Isoleucine: 1.058
  Fold change, L-rhamnose: 0.191
  Fold change, Lactic acid: 0.573
  Fold change, Leucine: 0.704
  Fold change, Lysine: 0.526
  Fold change, Methionine: 1.121
  Fold change, Nicotinic acid: 0.616
  Fold change, Octadecadienoic acid: 1.285
  Fold change, Ornithine: 0.453
  Fold change, Orotic acid: 1.443
  Fold change, Pantothenic acid: 0.519
  Fold change, Pentadecanoic acid: 0.271
  Fold change, Phenylalanine: 0.989
  Fold change, Phosphoric acid: 1.212
  Fold change, Propionate: 1.530
  Fold change, Ribitol: 1.340
  Fold change, Serine: 0.538
  Fold change, Sorbitol: 1.816
  Fold change, Tetradecanoic acid: 0.349
  Fold change, Threitol: 2.116
  Fold change, Threonic acid: 1.362
  Fold change, Threonine: 1.275
  Fold change, Thymine: 1.214
  Fold change, Tricosadiynoic acid: 0.767
  Fold change, Tryptophan: 1.117
  Fold change, Uracil: 0.561
  Fold change, Uric acid: 0.772
  Fold change, beta-Alanine: 1.217
  Fold change, myo-Inositol: 2.179
  Fold change, myo-Inositol-1-phosphate: 0.584
